Assay results: ChEMBL document CHEMBL4507307 (2021)
pIC50, pKi: −log10 of the molar value. Active and inactive are the calls of the source. The calls are words filed in the database; no cut-off is given here.

Tests used:
Histamine H1 receptor [1] = target: T1, Histamine H1 receptor (Homo sapiens, UniProt P35367); assay: GPCRScan assay: inhibition of H1; parameters: radioligand conc. used [nm] 0.6 – 2.0, parental cells stable HEK; conditions: for pKi: read-out: Ki
[2] = target: Dual specificity protein kinase CLK1 (Homo sapiens, UniProt P49759); assay: NanoBRET (SGC Frankfurt) (CLK1)
[3] = target: Dual specificity tyrosine-phosphorylation-regulated kinase 1A (Homo sapiens, UniProt Q13627); assay: NanoBRET (SGC Frankfurt) (DYRK1A)
[4] = target: Dual specificity tyrosine-phosphorylation-regulated kinase 1B (Homo sapiens, UniProt Q9Y463); assay: NanoBRET (SGC Frankfurt) (DYRK1B)
[5] = target: Serine/threonine-protein kinase SIK2 (Homo sapiens, UniProt Q9H0K1); assay: NanoBRET (SGC Frankfurt) (SIK2)
[6] = target: Receptor-type tyrosine-protein kinase FLT3 (Homo sapiens, UniProt P36888, D835V); assay: NanoBRET (SGC Frankfurt) (FLT3 (D835V))
[7] = target: 5-hydroxytryptamine receptor 1B (Homo sapiens, UniProt P28222); conditions: Compound concentration 10.0 uM
[8] = target: 5-hydroxytryptamine receptor 1D (Homo sapiens, UniProt P28221); conditions: Compound concentration 10.0 uM
[9] = target: 5-hydroxytryptamine receptor 1E (Homo sapiens, UniProt P28566); conditions: Compound concentration 10.0 uM
[10] = target: 5-hydroxytryptamine receptor 2A (Homo sapiens, UniProt P28223); conditions: Compound concentration 10.0 uM
[11] = target: 5-hydroxytryptamine receptor 2B (Homo sapiens) (UniProt P41595); conditions: Compound concentration 10.0 uM
[12] = target: 5-hydroxytryptamine receptor 2C (Homo sapiens) (UniProt P28335); conditions: Compound concentration 10.0 uM
[13] = target: 5-hydroxytryptamine receptor 3A (Homo sapiens) (UniProt P46098); conditions: Compound concentration 10.0 uM
[14] = target: 5-hydroxytryptamine receptor 5A (Homo sapiens, UniProt P47898); conditions: Compound concentration 10.0 uM
[15] = target: 5-hydroxytryptamine receptor 7 (Homo sapiens) (UniProt P34969); conditions: Compound concentration 10.0 uM
D(1A) dopamine receptor = D(1A) dopamine receptor (Homo sapiens, UniProt P21728); conditions: Compound concentration 10.0 uM
D(2) dopamine receptor = D(2) dopamine receptor (Homo sapiens, UniProt P14416); conditions: Compound concentration 10.0 uM
D(3) dopamine receptor = D(3) dopamine receptor (Homo sapiens, UniProt P35462); conditions: Compound concentration 10.0 uM
[16] = target: D(4) dopamine receptor (Homo sapiens) (UniProt P21917); conditions: Compound concentration 10.0 uM
[17] = target: D(1B) dopamine receptor (Homo sapiens) (UniProt P21918); conditions: Compound concentration 10.0 uM
[18] = target: Sodium-dependent serotonin transporter (Homo sapiens) (UniProt P31645); conditions: Compound concentration 10.0 uM
[19] = target: Sodium-dependent noradrenaline transporter (Homo sapiens) (UniProt P23975); conditions: Compound concentration 10.0 uM
[20] = target: Sodium-dependent dopamine transporter (Homo sapiens) (UniProt Q01959); conditions: Compound concentration 10.0 uM
Mu-type opioid receptor = Mu-type opioid receptor (Homo sapiens, UniProt P35372); conditions: Compound concentration 10.0 uM
[21] = target: Delta-type opioid receptor (Homo sapiens) (UniProt P41143); conditions: Compound concentration 10.0 uM
[22] = target: Kappa-type opioid receptor (Homo sapiens, UniProt P41145); conditions: Compound concentration 10.0 uM
[23] = target: T2, GABA-A receptor; anion channel (Rattus norvegicus) (UniProt O09028+P15431+P18506+P18508+P19969+P20236+P23574+P23576+P28471+P28473+P30191+P62813+P63079+P63138+Q91ZM7+Q9ES14); conditions: Compound concentration 10.0 uM
Histamine H1 receptor [24] = target: T1, Histamine H1 receptor; conditions: Compound concentration 10.0 uM
Histamine H2 receptor = Histamine H2 receptor (Homo sapiens, UniProt P25021); conditions: Compound concentration 10.0 uM
[25] = target: Histamine H4 receptor (Homo sapiens) (UniProt Q9H3N8); conditions: Compound concentration 10.0 uM
[26] = target: Alpha-1A adrenergic receptor (Homo sapiens) (UniProt P35348); conditions: Compound concentration 10.0 uM
[27] = target: Alpha-1B adrenergic receptor (Homo sapiens) (UniProt P35368); conditions: Compound concentration 10.0 uM
[28] = target: Alpha-2A adrenergic receptor (Homo sapiens) (UniProt P08913); conditions: Compound concentration 10.0 uM
[29] = target: Alpha-2B adrenergic receptor (Homo sapiens) (UniProt P18089); conditions: Compound concentration 10.0 uM
[30] = target: Alpha-2C adrenergic receptor (Homo sapiens) (UniProt P18825); conditions: Compound concentration 10.0 uM
[31] = target: Beta-1 adrenergic receptor (Homo sapiens) (UniProt P08588); conditions: Compound concentration 10.0 uM
[32] = target: Beta-2 adrenergic receptor (Homo sapiens) (UniProt P07550); conditions: Compound concentration 10.0 uM
[33] = target: Muscarinic acetylcholine receptor M2 (Homo sapiens) (UniProt P08172); conditions: Compound concentration 10.0 uM
[34] = target: Muscarinic acetylcholine receptor M3 (Homo sapiens) (UniProt P20309); conditions: Compound concentration 10.0 uM
[35] = target: Muscarinic acetylcholine receptor M4 (Homo sapiens) (UniProt P08173); conditions: Compound concentration 10.0 uM
[36] = target: Muscarinic acetylcholine receptor M5 (Homo sapiens) (UniProt P08912); conditions: Compound concentration 10.0 uM
[37] = target: T2, GABA-A receptor; anion channel (Rattus norvegicus); conditions: Compound concentration 10.0 uM; remark: listed apart in the source
[38] = target: Sigma intracellular receptor 2 (Homo sapiens, UniProt Q5BJF2); conditions: Compound concentration 10.0 uM
[39] = target: Sigma non-opioid intracellular receptor 1 (Homo sapiens, UniProt Q99720); conditions: Compound concentration 10.0 uM
Sequence of Sigma non-opioid intracellular receptor 1 (Q99720 whole entry): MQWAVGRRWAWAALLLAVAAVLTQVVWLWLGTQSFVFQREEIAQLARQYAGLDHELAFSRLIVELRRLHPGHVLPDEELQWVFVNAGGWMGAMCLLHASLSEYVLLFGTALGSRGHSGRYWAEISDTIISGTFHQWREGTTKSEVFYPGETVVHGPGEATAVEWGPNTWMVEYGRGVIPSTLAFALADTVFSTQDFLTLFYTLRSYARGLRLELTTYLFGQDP

T1 sequence (P35367 whole entry): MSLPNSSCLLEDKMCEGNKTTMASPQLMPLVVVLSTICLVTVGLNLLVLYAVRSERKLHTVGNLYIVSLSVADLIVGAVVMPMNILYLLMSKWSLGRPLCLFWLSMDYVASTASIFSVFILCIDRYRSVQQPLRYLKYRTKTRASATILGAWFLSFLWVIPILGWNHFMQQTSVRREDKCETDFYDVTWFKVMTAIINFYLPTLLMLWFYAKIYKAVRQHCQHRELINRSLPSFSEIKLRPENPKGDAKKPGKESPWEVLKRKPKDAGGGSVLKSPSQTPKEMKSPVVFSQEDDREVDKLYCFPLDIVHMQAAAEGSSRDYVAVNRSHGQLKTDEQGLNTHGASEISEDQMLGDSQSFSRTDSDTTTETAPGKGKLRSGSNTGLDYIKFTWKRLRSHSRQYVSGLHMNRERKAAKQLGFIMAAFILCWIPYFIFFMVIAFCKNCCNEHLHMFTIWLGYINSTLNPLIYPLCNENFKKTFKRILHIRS
Sequence of Alpha-1B adrenergic receptor (Homo sapiens) (P35368 whole entry): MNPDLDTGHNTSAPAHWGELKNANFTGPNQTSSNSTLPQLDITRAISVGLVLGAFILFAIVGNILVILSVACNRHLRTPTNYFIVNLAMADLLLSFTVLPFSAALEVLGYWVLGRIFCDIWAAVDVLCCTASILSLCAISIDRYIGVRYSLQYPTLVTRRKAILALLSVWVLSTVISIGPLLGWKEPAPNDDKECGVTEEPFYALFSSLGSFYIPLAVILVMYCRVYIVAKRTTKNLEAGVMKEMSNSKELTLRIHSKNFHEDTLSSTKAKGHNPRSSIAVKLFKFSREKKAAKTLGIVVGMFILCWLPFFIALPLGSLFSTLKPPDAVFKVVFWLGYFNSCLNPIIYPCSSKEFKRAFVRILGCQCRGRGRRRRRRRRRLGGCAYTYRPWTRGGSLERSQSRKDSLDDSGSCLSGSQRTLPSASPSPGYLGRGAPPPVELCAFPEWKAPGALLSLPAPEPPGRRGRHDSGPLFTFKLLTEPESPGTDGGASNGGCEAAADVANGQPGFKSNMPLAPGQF
Sequence of D(4) dopamine receptor (Homo sapiens) (P21917 whole entry): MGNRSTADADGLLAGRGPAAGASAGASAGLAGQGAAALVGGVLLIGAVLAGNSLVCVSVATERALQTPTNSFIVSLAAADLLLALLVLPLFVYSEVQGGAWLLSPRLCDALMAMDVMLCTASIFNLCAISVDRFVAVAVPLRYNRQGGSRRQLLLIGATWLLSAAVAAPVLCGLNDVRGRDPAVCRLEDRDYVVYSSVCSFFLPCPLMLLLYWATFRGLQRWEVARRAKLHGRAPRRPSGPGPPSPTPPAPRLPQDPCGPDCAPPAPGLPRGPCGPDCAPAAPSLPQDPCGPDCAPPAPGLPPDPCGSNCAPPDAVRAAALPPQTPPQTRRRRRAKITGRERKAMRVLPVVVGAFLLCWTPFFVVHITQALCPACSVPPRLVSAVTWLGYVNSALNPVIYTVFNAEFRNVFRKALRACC
Sequence of 5-hydroxytryptamine receptor 2C (Homo sapiens) (P28335 whole entry): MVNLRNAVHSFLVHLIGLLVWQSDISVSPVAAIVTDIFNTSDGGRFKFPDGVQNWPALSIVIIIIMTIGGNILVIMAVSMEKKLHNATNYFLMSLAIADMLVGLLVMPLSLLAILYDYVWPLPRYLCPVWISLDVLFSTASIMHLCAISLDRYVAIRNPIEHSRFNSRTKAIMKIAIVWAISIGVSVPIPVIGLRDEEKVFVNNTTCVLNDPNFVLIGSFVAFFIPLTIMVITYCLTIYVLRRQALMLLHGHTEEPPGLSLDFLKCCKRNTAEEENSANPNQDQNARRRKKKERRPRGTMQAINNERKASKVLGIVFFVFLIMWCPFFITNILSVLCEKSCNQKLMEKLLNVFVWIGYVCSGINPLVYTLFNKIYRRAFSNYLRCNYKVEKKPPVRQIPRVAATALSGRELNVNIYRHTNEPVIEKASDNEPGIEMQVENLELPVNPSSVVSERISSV
Sequence of 5-hydroxytryptamine receptor 3A (Homo sapiens) (P46098 whole entry): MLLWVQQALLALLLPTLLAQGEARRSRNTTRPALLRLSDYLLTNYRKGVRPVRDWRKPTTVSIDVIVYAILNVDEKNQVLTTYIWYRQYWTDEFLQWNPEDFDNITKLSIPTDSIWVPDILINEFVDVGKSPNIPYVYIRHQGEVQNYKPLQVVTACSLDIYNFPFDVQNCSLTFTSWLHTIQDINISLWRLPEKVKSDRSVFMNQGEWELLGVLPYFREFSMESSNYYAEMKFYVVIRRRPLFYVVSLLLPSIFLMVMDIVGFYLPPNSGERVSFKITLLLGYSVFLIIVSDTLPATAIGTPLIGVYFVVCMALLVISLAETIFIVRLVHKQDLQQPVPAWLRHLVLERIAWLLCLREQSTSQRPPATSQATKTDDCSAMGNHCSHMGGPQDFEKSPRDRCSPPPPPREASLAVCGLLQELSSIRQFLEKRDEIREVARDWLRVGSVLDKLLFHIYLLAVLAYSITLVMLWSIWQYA
Sequence of Histamine H4 receptor (Homo sapiens) (Q9H3N8 whole entry): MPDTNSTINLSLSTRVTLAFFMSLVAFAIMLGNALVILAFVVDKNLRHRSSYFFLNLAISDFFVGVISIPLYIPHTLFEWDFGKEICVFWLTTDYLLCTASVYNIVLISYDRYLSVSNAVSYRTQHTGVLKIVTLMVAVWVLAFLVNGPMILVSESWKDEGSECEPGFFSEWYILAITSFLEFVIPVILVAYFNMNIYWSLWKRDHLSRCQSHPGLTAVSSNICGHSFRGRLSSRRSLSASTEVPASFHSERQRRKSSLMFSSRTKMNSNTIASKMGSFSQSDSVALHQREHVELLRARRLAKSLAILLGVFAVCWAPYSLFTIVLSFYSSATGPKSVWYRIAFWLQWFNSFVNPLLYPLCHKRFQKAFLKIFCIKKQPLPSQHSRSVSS
Sequence of 5-hydroxytryptamine receptor 1E (P28566 whole entry): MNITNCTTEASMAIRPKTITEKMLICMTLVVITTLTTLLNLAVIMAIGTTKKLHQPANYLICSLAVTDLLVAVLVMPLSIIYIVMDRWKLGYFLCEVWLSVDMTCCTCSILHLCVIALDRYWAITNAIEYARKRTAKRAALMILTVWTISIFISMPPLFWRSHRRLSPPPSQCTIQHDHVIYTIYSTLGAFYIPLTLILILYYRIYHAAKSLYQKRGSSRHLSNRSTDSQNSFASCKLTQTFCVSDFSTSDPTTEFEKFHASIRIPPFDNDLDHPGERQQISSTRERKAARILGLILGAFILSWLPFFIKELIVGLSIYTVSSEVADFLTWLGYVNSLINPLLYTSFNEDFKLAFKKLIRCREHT
Sequence of Muscarinic acetylcholine receptor M3 (Homo sapiens) (P20309 whole entry, looked up): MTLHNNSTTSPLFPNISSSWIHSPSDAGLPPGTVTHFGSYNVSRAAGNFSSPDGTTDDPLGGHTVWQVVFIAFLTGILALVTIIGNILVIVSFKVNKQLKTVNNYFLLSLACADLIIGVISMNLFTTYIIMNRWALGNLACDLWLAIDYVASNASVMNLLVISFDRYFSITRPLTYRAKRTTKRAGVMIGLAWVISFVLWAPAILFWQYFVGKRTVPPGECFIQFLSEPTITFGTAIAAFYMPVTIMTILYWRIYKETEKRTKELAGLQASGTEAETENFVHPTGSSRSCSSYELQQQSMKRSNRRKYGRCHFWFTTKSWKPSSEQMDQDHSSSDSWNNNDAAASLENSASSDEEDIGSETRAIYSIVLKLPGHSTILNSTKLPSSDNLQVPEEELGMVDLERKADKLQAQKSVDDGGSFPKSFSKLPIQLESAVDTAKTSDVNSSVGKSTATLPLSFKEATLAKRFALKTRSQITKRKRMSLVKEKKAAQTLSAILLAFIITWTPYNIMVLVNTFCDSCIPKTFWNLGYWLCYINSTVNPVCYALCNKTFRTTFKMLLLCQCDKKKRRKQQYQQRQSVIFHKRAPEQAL
Sequence of Sodium-dependent serotonin transporter (Homo sapiens) (P31645 whole entry, looked up): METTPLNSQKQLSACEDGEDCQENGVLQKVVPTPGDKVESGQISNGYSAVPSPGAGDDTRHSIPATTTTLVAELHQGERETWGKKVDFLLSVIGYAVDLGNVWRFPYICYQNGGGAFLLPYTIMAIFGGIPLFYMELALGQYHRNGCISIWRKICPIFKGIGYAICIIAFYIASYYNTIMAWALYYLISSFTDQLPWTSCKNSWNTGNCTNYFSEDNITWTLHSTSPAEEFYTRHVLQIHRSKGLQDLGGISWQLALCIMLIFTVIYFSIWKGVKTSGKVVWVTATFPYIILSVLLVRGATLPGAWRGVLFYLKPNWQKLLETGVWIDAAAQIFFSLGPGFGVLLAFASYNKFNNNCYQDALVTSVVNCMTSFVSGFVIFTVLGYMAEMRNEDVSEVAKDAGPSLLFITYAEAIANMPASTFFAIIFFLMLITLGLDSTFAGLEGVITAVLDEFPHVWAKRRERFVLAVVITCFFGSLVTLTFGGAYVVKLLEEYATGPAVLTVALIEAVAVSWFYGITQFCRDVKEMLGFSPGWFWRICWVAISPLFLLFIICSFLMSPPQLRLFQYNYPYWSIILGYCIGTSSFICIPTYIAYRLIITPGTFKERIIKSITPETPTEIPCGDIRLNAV
Sequence of 5-hydroxytryptamine receptor 1B (P28222 whole entry): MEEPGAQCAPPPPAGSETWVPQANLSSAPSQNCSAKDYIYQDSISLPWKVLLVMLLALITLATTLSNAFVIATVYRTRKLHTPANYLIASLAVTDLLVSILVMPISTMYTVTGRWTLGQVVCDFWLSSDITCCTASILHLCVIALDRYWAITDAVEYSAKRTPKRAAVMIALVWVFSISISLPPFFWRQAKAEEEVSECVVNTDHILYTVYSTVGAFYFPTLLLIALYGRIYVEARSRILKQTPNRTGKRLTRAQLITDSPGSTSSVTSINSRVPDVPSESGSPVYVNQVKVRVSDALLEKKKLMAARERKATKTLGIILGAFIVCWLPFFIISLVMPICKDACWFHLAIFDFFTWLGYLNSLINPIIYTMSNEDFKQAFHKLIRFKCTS

CN1CCN(C(=O)C(C)(C)c2ccc(C(=O)Nc3cn4cc(-c5cc(C(C)(C)C)cc(C(C)(C)C)c5)ccc4n3)cc2)CC1 [T3-CLK-N]
pKi (Histamine H1 receptor [1]): 5.72
Ki (Histamine H1 receptor [1]; read-out: pKi (converted)): 1.32 µM
IC50 [2]: > 10 µM (not active)
IC50 [3]: > 10 µM (not active)
IC50 [4]: > 10 µM (not active)
IC50 [5]: > 10 µM (not active)
IC50 [6]: > 10 µM (not active)
inhibition [7]: 66.9%
inhibition [8]: 50.5%
inhibition [9]: 60.5%
inhibition [10]: 92.3%
inhibition [11]: 44.1%
inhibition [12]: 83%
inhibition [13]: 6.47%
inhibition [14]: 83.2%
inhibition [15]: 45.2%
inhibition (D(1A) dopamine receptor): 58.2%
inhibition (D(2) dopamine receptor): 57.5%
inhibition (D(3) dopamine receptor): 78.9%
inhibition [16]: 34.8%
inhibition [17]: 29.7%
inhibition [18]: 26.3%
inhibition [19]: 40.8%
inhibition [20]: -0.51%
inhibition (Mu-type opioid receptor): 55.7%
inhibition [21]: 46.2%
inhibition [22]: 54.4%
inhibition [23]: 4.08%
inhibition (Histamine H1 receptor [24]): 83%
inhibition (Histamine H2 receptor): 86.8%
inhibition [25]: 31.9%
inhibition [26]: 66.4%
inhibition [27]: 50.5%
inhibition [28]: 83.7%
inhibition [29]: 77.6%
inhibition [30]: 88.5%
inhibition [31]: 28%
inhibition [32]: 17.2%
inhibition [33]: 6.55%
inhibition [34]: 40.4%
inhibition [35]: 0.99%
inhibition [36]: 30.8%
inhibition [37]: 13.5%
inhibition [38]: 97.9%
inhibition [39]: 90%

CN1CCN(C(=O)C(C)(C)c2ccc(C(=O)Nc3cn4cc(-c5ccncc5)ccc4n3)cc2)CC1 [T3-CLK]
pKi (Histamine H1 receptor [1]): 5.67
IC50 [2]: 0.00349 µM (active)
pIC50 [3]: 7.49
pIC50 [4]: 7.17
IC50 [5]: 0.125 µM (not active)
IC50 [6]: 0.138 µM (not active)
inhibition [7]: 7.83%
inhibition [8]: 5.95%
inhibition [9]: -1.52%
inhibition [10]: -2.63%
inhibition [11]: -7.63%
inhibition [12]: 12.4%
inhibition [13]: 1.81%
inhibition [14]: 4%
inhibition [15]: -5.21%
inhibition (D(1A) dopamine receptor): 4.41%
inhibition (D(2) dopamine receptor): 10.8%
inhibition (D(3) dopamine receptor): 12.8%
inhibition [16]: 9.12%
inhibition [17]: -7.3%
inhibition [18]: -3.55%
inhibition [19]: 5.3%
inhibition [20]: 8.33%
inhibition (Mu-type opioid receptor): 5.33%
inhibition [21]: 4.05%
inhibition [22]: -6.32%
inhibition [23]: -5.11%
inhibition (Histamine H1 receptor [24]): 54.9%
inhibition (Histamine H2 receptor): 19.4%
inhibition [25]: 0.74%
inhibition [26]: -5.18%
inhibition [27]: 4.68%
inhibition [28]: 2.61%
inhibition [29]: 19.3%
inhibition [30]: 17.2%
inhibition [31]: -7.22%
inhibition [32]: 16.6%
inhibition [33]: 3.82%
inhibition [34]: 21.1%
inhibition [35]: 25.2%
inhibition [36]: 9.31%
inhibition [37]: 7.47%
inhibition [38]: 13.4%
inhibition [39]: 16.9%
